We go through 9 compounds from article PMC6359037, “Effects of Piperazine Derivative on Paclitaxel Pharmacokinetics” (Pharmaceutics, 2019).

For data set [1], the system named is MCF-7/ADR cells. The data set can be described thus: Cytotoxicity (toxic effect) of each piperazine derivative alone, SRB assay. The note with it: 2 h incubation. It is filed as cell-based, human. On the procedure: The MDR human breast cancer cell line MCF-7/ADR was maintained in RPMI 1640, supplemented with 2 mM L-glutamine, 10 mM HEPES, 24 mM NaHCO3, 10% fetal bovine serum, and 1% antibiotic-antimycotic agent at 37 °C in a humidified 5% CO2 atmosphere.
The cytotoxicity of each piperazine derivative was examined in the cells using the sulforhodamine B (SRB) assay. The changes in IC50 values of DNM, P-gp substrate anticancer drug were estimated in the presence of piperazine derivatives at a concentration of 100 μM. The details of the cytotoxicity assay were described in our previous report. […] The IC50 values were calculated with the Table Curve Windows program. The assay was performed in triplicate.
Background: In SRB staining, fixed cells bind dye roughly in proportion to their protein.

A further data set has as its target human P-gp membrane (Homo sapiens, UniProt P08183). The data set is described as follows: P-glycoprotein ATPase activity assay. The settings on record: 100 μM.
The subject of data set [2] is MCF-7/ADR cells. The data set can be described thus: Cytotoxicity assay (SRB): change of DNM IC50 in the presence of piperazine derivatives. The class given is cell-based. The note with it: Homo sapiens, NCI/ADR-RES, DNM alone (negative control). On the procedure: The cytotoxicity of each piperazine derivative was examined in the cells using the sulforhodamine B (SRB) assay. […] The details of the cytotoxicity assay were described in our previous report. […] The IC50 values were calculated with the Table Curve Windows program. The assay was performed in triplicate.

The next data set addresses T1, P-gp (Homo sapiens, UniProt P08183).
T1 construct: uptake (A) and efflux (B) of [^3H]-DNM in MCF-7/ADR cells; endogenous in cells; host or cells: MCF-7/ADR
The data set can be described thus: [3H]-DNM efflux study in P-gp overexpressing cells. The class given is cell-based. The note with it: control: tritium-labeled DNM alone, 1 h, MCF-7/ADR cells. Here is the method:
Tritium-labeled P-gp substrate uptake and efflux studies were performed using the modified Harker and Sikic method. […] For the efflux study, cells were incubated with 0.05 μM tritium-labeled DNM for 1 h and subsequently in the absence or presence of 100 μM of pre-selected derivatives for another 1 h after removing 0.05 μM of the tritium-labeled DNM. The uptake and efflux values based on the radioactivity estimated by Liquid Scintillation Counting were normalized to those of 1 × 10^6 cells. The detailed procedures have been reported previously.

On the set-up of data set [3]: method as in doi:10.1016/S0378-5173(98)00188-4. The settings on record: cited from earlier work.
Data set [4] is described as follows: PTX pharmacokinetics in rats, alone or orally co-administered with compound 4. The settings on record: for AUC(0-inf): read-out: AUCinf of PTX; for k el: read-out: ke of PTX (converted); for half-life: read-out: t1/2 of PTX (converted). The class given is in vivo, Sprague-Dawley rats. Here is the method: All the animal experiments were performed using six-week-old male Sprague-Dawley rats (200–235 g) under the procedures granted by the Ewha Womans University Institutional Animal Care and Use Committee (IACUC) (No. 2012-01-019), Korea.
PTX at 2 mg/mL was prepared immediately prior to use with a commercial formulation of Taxol® (Cremophor® EL, anhydrous ethanol and isotonic saline (1:1:4, v/v/v)). Compound 4 (N-(4-(4-bromophenyl)thiazol-2-yl)-2-(N-(2-(4-((4-chlorophenyl)(phenyl)methyl)piperazin-1-yl)-2-oxoethyl)acetamido)acetamide) was prepared using a process similar to PTX formulation for oral administration.
For intravenous injection of 2 mg/kg of PTX (IV) and oral administration of 25 mg/kg of PTX (PO) with 0, 2, or 5 mg/kg of compound 4, the rats were divided into 4 groups on the day. The common carotid artery was catheterized for blood sampling. Blood sampling was conducted at 0, 0.033, 0.083, 0.25, 0.5, 1, 2, 3, 4, 6, 10, and 24 h for the IV group and 0, 0.25, 0.5, 1, 2, 3, 4, 6, 8, 10, and 24 h for PO groups.
Prepared plasma samples mixed with internal standard (4-hydroxybenzoic acid n-hexyl ester) were analyzed by the HPLC system.
WinNonlin® Professional version 5.2 software (Pharsight Corporation, Mountain View, CA, USA) was used to estimate the PK parameters following intravenous or oral PTX administrations to the rats. Non-compartmental analysis was performed using the plasma PTX concentration–time profiles to obtain the following PK parameters: Area under the plasma concentration–time curve from zero time to infinity (AUCinf), elimination half-life (t1/2), apparent volume of distribution after oral administration (Vz/F), and oral clearance (Cl/F). The maximum plasma concentration (Cmax) and the time required to reach Cmax (Tmax) were directly measured from the plasma PTX concentration–time curve. The absolute BA and relative BA (AB and RB, respectively) of PTX were calculated using the respective formulas below:AB (%) = AUC po/AUC iv × IV dose/PO dose × 100 RB (%) = AUC po co–administration/AUC po control × 100

The subject of a further data set is P-glycoprotein (P-gp). Details: method as in PMID 12608532. The note with it: cited from earlier work.
A further data set deals with MES-SA/Dx5. Details: method as in PMID 19275716. The note with it: xenograft mice with MES-SA/Dx5 (P-gp overexpressed) vs parental cells; cited from earlier work.
The mark [5] stands for this setting: PTX 25 mg/kg PO alone (oral control).
Setting [6] is: male, Sprague-Dawley, rat, plasma, PTX 2 mg/kg IV (IV control).
Where [7] appears, read: male, Sprague-Dawley, rat, plasma, PTX 25 mg/kg PO alone (oral control).

SMILES strings stand for the structures. Where two headings read alike, the source gives them in different places.

As usually defined, the IC50 is the concentration that gives 50% inhibition. For orientation: Cmax means the peak of the concentration-time curve. As usually defined, the Tmax is the time from dosing to the highest level.

human P-gp membrane, sequence (P08183 whole entry): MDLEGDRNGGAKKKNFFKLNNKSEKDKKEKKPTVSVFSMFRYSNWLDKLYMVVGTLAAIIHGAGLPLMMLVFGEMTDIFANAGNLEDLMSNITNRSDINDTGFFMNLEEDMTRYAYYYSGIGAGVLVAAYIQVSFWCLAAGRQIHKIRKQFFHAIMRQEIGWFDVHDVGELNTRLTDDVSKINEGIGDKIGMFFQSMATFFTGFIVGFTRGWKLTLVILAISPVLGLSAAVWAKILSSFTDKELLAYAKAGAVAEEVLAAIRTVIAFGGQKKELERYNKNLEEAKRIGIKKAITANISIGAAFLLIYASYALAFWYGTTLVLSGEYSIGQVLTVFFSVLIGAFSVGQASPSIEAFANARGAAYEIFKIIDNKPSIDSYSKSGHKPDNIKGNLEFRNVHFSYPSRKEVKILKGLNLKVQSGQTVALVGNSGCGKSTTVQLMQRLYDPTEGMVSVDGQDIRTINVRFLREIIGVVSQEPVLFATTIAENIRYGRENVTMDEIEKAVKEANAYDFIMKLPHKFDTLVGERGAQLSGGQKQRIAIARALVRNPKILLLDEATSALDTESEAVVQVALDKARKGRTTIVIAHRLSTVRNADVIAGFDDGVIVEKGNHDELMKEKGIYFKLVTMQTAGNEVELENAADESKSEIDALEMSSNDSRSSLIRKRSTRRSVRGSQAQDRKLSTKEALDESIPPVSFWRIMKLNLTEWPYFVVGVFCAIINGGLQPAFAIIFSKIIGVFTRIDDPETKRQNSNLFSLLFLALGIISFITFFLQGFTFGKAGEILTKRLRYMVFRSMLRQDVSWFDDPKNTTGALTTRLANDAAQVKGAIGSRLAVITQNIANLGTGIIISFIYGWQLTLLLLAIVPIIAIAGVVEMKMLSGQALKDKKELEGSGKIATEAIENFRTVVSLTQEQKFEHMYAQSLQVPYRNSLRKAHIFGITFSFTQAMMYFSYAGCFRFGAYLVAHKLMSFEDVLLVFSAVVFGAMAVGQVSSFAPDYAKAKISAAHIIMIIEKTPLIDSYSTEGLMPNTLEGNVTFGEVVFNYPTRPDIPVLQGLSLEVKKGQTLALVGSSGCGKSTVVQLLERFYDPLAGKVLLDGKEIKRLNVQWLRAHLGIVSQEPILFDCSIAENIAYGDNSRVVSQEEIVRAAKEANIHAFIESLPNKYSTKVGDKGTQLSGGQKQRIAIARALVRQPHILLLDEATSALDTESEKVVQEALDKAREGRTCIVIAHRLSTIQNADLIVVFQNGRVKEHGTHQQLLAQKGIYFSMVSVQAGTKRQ
T1 sequence (P08183 whole entry): as above
Text for human P-gp membrane: The rate of phosphate release per mg membrane protein represented the ATPase activity by converting to the relative ratio versus control value.

On to `COc1ccc(CNC(=O)CN(CC(=O)N2CCN(C(c3ccccc3)c3ccc(Cl)cc3)CC2)C(=O)c2ccccc2)cc1` (stereo not shown) [Compound 5], for which the cell survival ratio with MCF-7/ADR cells [1] (5 μM) was determined as 101.71; in the data set with MCF-7/ADR cells [1] (10 μM), 87.22; with MCF-7/ADR cells [1] (25 μM) it was 83.46; with MCF-7/ADR cells [1] (50 μM), 83.84; in the data set with MCF-7/ADR cells [1] (100 μM) it was 81.94.

As for `O=C(CN(CC(=O)N1CCN(C(c2ccccc2)c2ccc(Cl)cc2)CC1)C(=O)Cc1ccccc1)Nc1nc(-c2ccc(Cl)cc2)cs1` (stereo not shown) [Compound 2], at human P-gp membrane, the “P-gp ATPase activity compared to the control” value is 1.3 fold. For the same compound, the “P-gp ATPase activity, ratio of the control (blank)” value on human P-gp membrane is 1.29. The cell survival ratio was determined as 102.70 with MCF-7/ADR cells [1] (5 μM); 102.87 with MCF-7/ADR cells [1] (10 μM); 86.94 in the data set on MCF-7/ADR cells [1] (25 μM); 86.10 with MCF-7/ADR cells [1] (50 μM); 87.75 in the data set with MCF-7/ADR cells [1] (100 μM).

For `O=C(CN(CC(=O)N1CCN(C(c2ccccc2)c2ccc(Cl)cc2)CC1)C(=O)c1ccc2ccccc2c1)Nc1nc(-c2ccc(Cl)cc2)cs1` (stereo not shown) [Compound 3], the cell survival ratio turned out to be 102.03 in the data set on MCF-7/ADR cells [1] (5 μM); 101.69 in the data set with MCF-7/ADR cells [1] (10 μM); 102.24 in the data set with MCF-7/ADR cells [1] (25 μM); 86.26 with MCF-7/ADR cells [1] (50 μM); 85.90 in the data set on MCF-7/ADR cells [1] (100 μM).

Turning to `CC(C)(C)c1cc(NC(=O)CN(CC(=O)N2CCN(C(c3ccccc3)c3ccc(Cl)cc3)CC2)C(=O)c2ccccc2)no1` (stereo not shown) [Compound 6], the cell survival ratio in the data set with MCF-7/ADR cells [1] (5 μM) is reported as 100.72; with MCF-7/ADR cells [1] (10 μM), 101.38; in the data set with MCF-7/ADR cells [1] (25 μM), 100.76; in the data set with MCF-7/ADR cells [1] (50 μM), 85.68; in the data set on MCF-7/ADR cells [1] (100 μM) it was 82.91.

Consider `COc1cccc2c1C(=O)c1c(O)c3c(c(O)c1C2=O)C[C@@](O)(C(C)=O)C[C@@H]3O[C@H]1C[C@H](N)[C@H](O)[C@H](C)O1` [DNM, Daunomycin], for which the IC50 with MCF-7/ADR cells [2] was found to be 31.7 µM. In addition, the “[3H]-DNM efflux” value on P-gp stood at 63.0 ± 3.3%.

With `O=C(CN(CC(=O)N1CCN(C(c2ccccc2)c2ccc(Cl)cc2)CC1)C(=O)c1ccc2ccccc2c1)NCc1ccccc1` (stereo not shown) [Compound 1], the cell survival ratio in the data set with MCF-7/ADR cells [1] (5 μM) came out at 89.77; with MCF-7/ADR cells [1] (10 μM) it was 90.47; in the data set with MCF-7/ADR cells [1] (25 μM), 89.23; in the data set with MCF-7/ADR cells [1] (50 μM), 88.56; in the data set on MCF-7/ADR cells [1] (100 μM) it was 87.21.

For the compound `CC(=O)N(CC(=O)Nc1nc(-c2ccc(Br)cc2)cs1)CC(=O)N1CCN(C(c2ccccc2)c2ccc(Cl)cc2)CC1` (stereo not shown) [Compound 4, N-(4-(4-bromophenyl)thiazol-2-yl)-2-(N-(2-(4-((4-chlorophenyl)(phenyl)methyl)piperazin-1-yl)-2-oxoethyl)acetamido)acetamide], the “P-gp ATPase activity compared to the control” value at human P-gp membrane turned out to be 1.2 fold. Further, on human P-gp membrane, the “P-gp ATPase activity, ratio of the control (blank)” value is recorded as 1.18. Further, the cell survival ratio was 100.76 in the data set with MCF-7/ADR cells [1] (5 μM); 98.50 with MCF-7/ADR cells [1] (10 μM); 96.14 with MCF-7/ADR cells [1] (25 μM); 96.90 with MCF-7/ADR cells [1] (50 μM); 87.63 in the data set with MCF-7/ADR cells [1] (100 μM).

In the case of `CC(=O)O[C@H]1C(=O)[C@@]2(C)[C@H]([C@H](OC(=O)c3ccccc3)[C@]3(O)C[C@H](OC(=O)[C@H](O)[C@@H](NC(=O)c4ccccc4)c4ccccc4)C(C)=C1C3(C)C)[C@]1(OC(C)=O)CO[C@@H]1C[C@@H]2O` [PTX, Paclitaxel], in data set [3], the “bioavailability of PTX” value is listed as “below 10%”. Further, in data set [4] (PTX 2 mg/kg IV (IV control)), the “AB (absolute BA) of PTX” value came to 100.0%, the “Cl/F of PTX” value is reported as 614 ± 123 mL/h and the “Vz/F of PTX” value is on record as 1754 ± 419 mL. Moreover, in data set [4] (setting [5]), the “AB (absolute BA) of PTX” value is 7.1% and the “Cl/F of PTX” value stood at 8721 ± 2040 mL/h. In data set [4] (setting [6]), the Cmax worked out at 2970 ± 428 ng/mL, the AUC(0-inf) was 835 ± 155 ng·h/mL, the k el is 0.000103 s⁻¹ and the half-life is 2.06 ± 0.8 h. Also, in data set [4] (setting [7]), the Cmax was 189 ± 76 ng/mL, the Tmax came to 2 h, the AUC(0-inf) was 745 ± 208 ng·h/mL and the k el was 6.47e-05 s⁻¹. Further, the half-life in data set [4] (setting [7]) is 3.1 ± 0.8 h. Besides, the Vd/F in data set [4] (male, Sprague-Dawley, rat, plasma, PTX 25 mg/kg PO alone (oral control), read-out: Vz/F of PTX) is 40.6 L. Further, in the data set on P-glycoprotein (P-gp), the “share of orally administered PTX excluded from the GI track by P-gp” value is listed as “approximately 50%”.

Consider `O=C(C(c1ccccc1)c1ccc([125I])cc1)N1CCN(CC(O)COc2cccc3ncccc23)CC1` (stereo not shown) [radio-iodinated piperazine derivative, 5-[3-{4-(2-phenyl-2-(4-[125I]iodo-phenyl)acetyl)piperazin-1-yl}-2-hydroxypropoxy] quinoline], for which, in the data set with MES-SA/Dx5, the “shortening of absorption half-life” value was about 10 fold and the “shortening of mean residence time” value is on record as 50%.
